{"source": "patent US5578567A", "about": "“Nasal pharmaceutical composition” (Sandoz Ltd., priority 1990, dated 1996)", "assay": "bioavailability study, serum [1-38]hPTH by radioimmunoassay", "format": "in vivo, rhesus monkeys", "details": "monkeys, nasal administration", "description": "Compositions of Examples 1A, 6 and 9 are administered nasally to rhesus monkeys (n=5) at a dose of 100 μg/kg [1-38]hPTH. A reference composition comprising\nand buffered to pH 5.5 with Na2 HPO4 /citric acid is administered i.v. at a dose of 10 μg/kg.\nBlood is taken after 10, 20, 30, 45, 60, 90, 240 and 360 min after administration and stored deep frozen at -80° C. until analysed. [1-38]hPTH concentrations in serum are analysed using radioimmunoassay techniques providing a limit of detection of 0.2-0.1 ng/ml. In addition urine is collected and stored deep frozen at -80° C. until analysis of cAMP by RIA techniques.", "data": [{"smiles": "CC[C@H](C)[C@H](NC(=O)[C@H](CCC(=O)O)NC(=O)[C@H](CO)NC(=O)[C@@H](NC(=O)[C@@H](N)CO)C(C)C)C(=O)N[C@@H](CCC(N)=O)C(=O)N[C@@H](CC(C)C)C(=O)N[C@@H](CCSC)C(=O)N[C@@H](Cc1c[nH]cn1)C(=O)N[C@@H](CC(N)=O)C(=O)N[C@@H](CC(C)C)C(=O)NCC(=O)N[C@@H](CCCCN)C(=O)N[C@@H](Cc1c[nH]cn1)C(=O)N[C@@H](CC(C)C)C(=O)N[C@@H](CC(N)=O)C(=O)N[C@@H](CO)C(=O)N[C@@H](CCSC)C(=O)N[C@@H](CCC(=O)O)C(=O)N[C@@H](CCCNC(=N)N)C(=O)N[C@H](C(=O)N[C@@H](CCC(=O)O)C(=O)N[C@@H](Cc1c[nH]c2ccccc12)C(=O)N[C@@H](CC(C)C)C(=O)N[C@@H](CCCNC(=N)N)C(=O)N[C@@H](CCCCN)C(=O)N[C@@H](CCCCN)C(=O)N[C@@H](CC(C)C)C(=O)N[C@@H](CCC(N)=O)C(=O)N[C@@H](CC(=O)O)C(=O)N[C@H](C(=O)N[C@@H](Cc1c[nH]cn1)C(=O)N[C@@H](CC(N)=O)C(=O)N[C@@H](Cc1ccccc1)C(=O)N[C@H](C(=O)N[C@@H](C)C(=O)N[C@@H](CC(C)C)C(=O)NCC(=O)O)C(C)C)C(C)C)C(C)C", "note": "[[1-38]hPTH, hPTH[1-38]]", "values": [{"measurement": "serum levels reached, based on serum concentration and cumulative urinary excretion", "value": "therapeutic [1-38]hPTH serum levels are achieved"}]}]}
